Our source for the melting point values is a melting point compilation (Tetko et al.; mined from patent text by program, amines drawn as free bases though some values may be those of a salt).

Structures are written as SMILES.

Turning to `O=C(O)Cc1c(C(=O)O)c2cc(Oc3cccc(OC(F)(F)F)c3)ccc2n1-c1ccc(OC(F)(F)F)cc1`, the melting point (commonly the temperature, or range, at which the solid turns liquid) lay within 188 to 193 °C.

As for `COC(=O)c1cscc1NC(=O)NCCCCCBr`, the melting point lay in the range of 92 to 93.5 °C.

On to `CCOC(=O)Cn1c(=S)c2ccccc2n(Cc2ccc(Br)cc2F)c1=O`, for which the melting point was 109 to 110 °C.

In turn, `O=C(O)c1cc([N+](=O)[O-])cc([N+](=O)[O-])c1Nc1cc(-c2ccccc2)ccc1O` had a melting point of 215 to 217 °C.

Compound `CC1(C)Oc2ccc(C#N)cc2C(Sc2ccccn2)C1O` (stereo not drawn) displayed a melting point of 101 to 103 °C.

In the case of `COc1ccc(Cl)c2c1NC(=O)C2=[N+]=[N-]`, the melting point was in the range of 206 to 207 °C.

Take `Nc1ccc2c(c1)C(=Cc1cccs1)c1ccccc1-2`: the melting point came to 143 °C.

On to `O=CCC1Cc2cc(F)c(F)cc2C1=O` (racemic), for which the melting point is 78 to 81 °C.

In turn, `Nc1nc(-c2ccncc2O)nc2c1c(C(F)(F)F)nn2C1CCCC1` came in with a melting point of 187 to 190 °C.

Compound `CCO[C@@H](Cc1ccc(-c2nc([N+](=O)[O-])nn2C)cc1)C(=O)OC` had a melting point of 119 °C.

In the case of `Clc1sc(Cl)c2c1CNC2`, the melting point was > 270 °C.

For the compound `N#CC(C#N)CC(=O)c1ccc(Cl)c(Cl)c1`, the melting point was 142 to 145 °C.

Consider `CC(C)(C)c1ccc(C(O)CCCN2CCC(=C3c4ccccc4C=Cc4ccccc43)CC2)cc1` (stereo not drawn), for which the melting point lay in the range of 141 to 142 °C.

With `CCCCCN(C(=O)OC(C)(C)C)c1nc(N(C)Cc2ccccc2)c2ncn(CC(=O)O)c2n1`, the melting point lay in the range of 116 to 127 °C.

`Cc1ccccc1-c1cc(N2CCC(O)CC2)ncc1C(=O)N(C)Cc1cc(C(F)(F)F)cc(C(F)(F)F)c1` gave a melting point of 150 to 152 °C.

In turn, `Nc1ccc(CCC(=O)NC23CC4CC(CC(C4)C2)C3)cc1N` yielded a melting point of 151 to 152 °C.

Compound `Cc1nc(C)c(C(=O)Nc2ccc(-n3nc(C4CC4)cc3C3CC3)cc2)s1` returned a melting point of 98 to 114 °C.

In the case of `N#Cc1c(Cl)c(F)cc2c(=O)c(C(=O)O)cn(C3CC3)c12`, the melting point fell in the range of 281 to 282 °C.

`CC(Br)C(Br)C(=O)NC(=O)Nc1ccc(Cl)c(Cl)c1` (stereo not drawn) yielded a melting point of 196 to 197 °C.

For the compound `COC(=O)Nc1ccc(NC(=O)CN(C)C)c(N)c1`, the melting point was in the range of 140 to 142 °C.

Consider `CCOC(=O)C1=C(C)NC(=S)N(C(=O)OCC)C1c1cccc2nonc12` (stereo not drawn), for which the melting point lay in the range of 144 to 146 °C.

`COCCn1cc(-c2ccccc2)n(C(=O)c2ccccc2)c1=O` showed a melting point of 112 to 117 °C.

In turn, `CCS(=O)(=O)Nc1ccc(Cc2ccc(N)cc2)cc1` came in with a melting point of 108 to 109 °C.

Compound `CC(C)[C@H](O)[C@@H](CCCCOc1ccc(Cl)cc1Cl)n1nc[nH]c1=S` (racemic) displayed a melting point of 118 °C.

In the case of `O=CNc1c2c(nc3ccccc13)CCc1cnn(-c3ccccc3)c1-2`, the melting point is > 250 °C.

In turn, `COC(=O)c1ccc(-c2ccc(Br)c3nsnc23)cc1` registered a melting point of 188 to 192 °C.

In turn, `Cc1cccc(C(O)C2C(c3ccccc3)CC(=O)N2C)c1` (stereo not drawn) gave a melting point of 163 to 165 °C.

Consider `CC(C)(C)OC(=O)N[C@@H](Cc1ccccc1Cl)C(=O)NC1CCC(Nc2cccc3c2C(=O)c2ccccc2C3=O)CC1` (stereo partly drawn), for which the melting point came out at 183 °C.

In turn, `COc1ccc(OCCCN2CCN(c3ccc(Cl)nn3)CC2)cc1` showed a melting point of 123 °C.

`COC(=O)c1cccc(C)c1/C=C/Cc1c(OC)c(C)c2c(c1OC(C)=O)C(=O)OC2` had a melting point of 104 to 111 °C.

On to `CCCCc1ncc(/C=C(/C=C/C(=O)O)Cc2cccs2)n1Cc1ccccc1Cl`, for which the melting point was 191 to 192 °C.

Take `O=C(CCc1ccccc1)c1cccnc1Nc1ccc(F)cc1`: the melting point was 100 to 102 °C.

Turning to `CC(C)OC(=O)N1CCC(c2nc3cc(-c4ccc(C(N)=O)cn4)ccc3o2)CC1`, the melting point fell in the range of 227 to 230 °C.

The compound `O=C(C=Cc1ccccc1)NCc1ccc(C(=O)O)cc1` registered a melting point of 238 to 239 °C.

Turning to `CC(=O)Oc1ccccc1C(=O)NC(Oc1ccc2ccccc2c1)C(Cl)(Cl)Cl` (stereo not drawn), the melting point lay in the range of 158 to 160 °C.

`COC(=O)c1cc(C(=O)NCC(N)=O)c2cc(Cc3ccc(F)cc3)cnc2c1O` registered a melting point of 247 to 248 °C.

On to `O=c1cc2c(nn1-c1ccccc1)-c1ccccc1CC2`, for which the melting point was 155 to 157 °C.

Compound `CN1C(=O)c2c(Oc3ccccc3OS(=O)(=O)C(F)(F)F)cc3c(c2C1=O)c1ccc(OCc2ccccc2)cc1n3C(=O)OC(C)(C)C` showed a melting point of 186 °C.

Regarding `CCOC(=O)C1=C(COCc2cccnc2)NC(COCc2cccnc2)=C(C(=O)OCC)C1c1ccccc1[N+](=O)[O-]`, the melting point lay in the range of 142 to 145 °C.

For `CS(=O)(=O)CCCn1cc(C(Cc2ccccc2Br)=NO)c2ccc(Cl)c(Cl)c21`, the melting point lay within 191 to 194 °C.

For the compound `Nc1nc(Cl)nc2cnc(Oc3ccc(F)cc3F)cc12`, the melting point is > 300 °C.

Turning to `COc1cc(OC)c(C(=O)CC(=O)c2cc(OC)c(OC)c(OC)c2)cc1OC`, the melting point was in the range of 154 to 156 °C.

`Cc1ccc(NC(=O)c2cc(C#N)cc(C)n2)nc1`: the melting point was found to be 196 °C.

`O=C1C(=Cn2ccnc2)C(c2ccccc2)c2ccccc21` (stereo not drawn) displayed a melting point of 204 to 206 °C.

`CCOC(=O)CC1CCCc2cc(C#N)ccc21` (stereo not drawn): the melting point was in the range of 45 to 47 °C.

`O=c1nc(C2CC2)sc2ccccc12` displayed a melting point of 120 °C.

As for `CC(c1ccc(O)cc1)(c1ccc(O)cc1)C(F)(F)F`, the melting point lay within 93 to 94.5 °C.

Regarding `Nc1c(Cl)nc2ccccc2c1NCc1cc(-c2ccc(F)cc2)no1`, the melting point lay in the range of 127 to 128 °C.

With `CNC(=S)C1(c2ccc3ccccc3n2)CCCS1` (stereo not drawn), the melting point stood at 124 °C.

Turning to `C=CCONC(=O)Cc1ccc(OC)cc1`, the melting point fell in the range of 100 to 101 °C.

`Cc1ccc(-c2ccc3c(c2)C(=O)CC3)cc1` registered a melting point of 121 to 122 °C.

Take `N#Cc1cnc2c(-c3ccncc3)c(-c3ccc(F)cc3)nn2c1N`: the melting point is > 280 °C.

The compound `CCN(CC)Cc1nc(-c2ncn3c2[C@@H]2CCN2C(=O)c2c(Br)cccc2-3)no1` displayed a melting point of 206 to 209 °C.

With `COc1ccc(N2CC(CCN3CCC(O)(c4ccc5c(c4)OCO5)CC3)OC2=O)cc1` (stereo not drawn), the melting point was in the range of 128 to 130 °C.

`O=CN[C@H]1CC[C@H](CCN2CCN(c3nccc4c3CCO4)CC2)CC1` showed a melting point of 170 °C.

Take `CCOc1cc2c(cc1OC)Cc1c([nH]cnc1=O)N2`: the melting point fell in the range of 318 to 320 °C.

Turning to `CC(Oc1ncnc2ccccc12)c1ccc(C(C)(C)C)cc1` (stereo not drawn), the melting point was in the range of 85 to 86 °C.

In turn, `O=C(O)C1CSC(c2cccnc2)N1` (stereo not drawn) gave a melting point of 135 to 140 °C.

`CC(=O)OCC1OC(n2cc(I)c(=O)[nH]c2=O)C(OC(C)=O)C1OC(C)=O` (stereo not drawn) yielded a melting point of 175 to 179 °C.

With `CC(C)(C)[N+]([O-])=Cc1ccc(S(C)(=O)=O)o1`, the melting point turned out to be 138 °C.

For `COCCn1cc2c(n1)c(N)nc1ccccc12`, the melting point lay in the range of 230 to 231 °C.

The compound `O=C(O)CCCC(=O)Oc1cccc(-c2cn3c(n2)sc2ccccc23)c1` yielded a melting point of 168 to 171 °C.

Take `CC(C)(C)OC(=O)N[C@@H]1CCC(=O)OC1=O`: the melting point is 117 to 119 °C.
